PMC8027839 (Scientific Reports, 2021)
Entries after “also recorded” stand apart in the source; their conditions may differ.

Tests used:
SapM [1] = molecular target: T1, SapM (Mycobacterium tuberculosis, UniProt O53361); experiment: biochemical; format: biochemical
T1 construct: made in house; host or cells: Escherichia coli C41 (DE3)
T1 sequence (O53361 44-299): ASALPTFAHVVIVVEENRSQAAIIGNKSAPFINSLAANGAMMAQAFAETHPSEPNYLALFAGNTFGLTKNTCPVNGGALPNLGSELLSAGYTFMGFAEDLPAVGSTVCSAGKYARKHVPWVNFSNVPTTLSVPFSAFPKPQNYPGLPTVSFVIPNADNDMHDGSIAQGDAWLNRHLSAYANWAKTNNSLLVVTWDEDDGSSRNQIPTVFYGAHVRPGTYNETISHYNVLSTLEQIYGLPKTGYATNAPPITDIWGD

MptpA = MptpA (Mycobacterium tuberculosis, UniProt P9WIA1); experiment: biochemical; details: pNPP assay, pH 6
MptpB = MptpB (Mycobacterium tuberculosis, UniProt I6WXK4); experiment: biochemical; details: pNPP assay, pH 6
SapM [2] = molecular target: T1, SapM; experiment: Type of inhibition of SapM, Lineweaver-Burk plots; format: biochemical
Source text: To determine the type of inhibition different inhibitor concentrations were selected to yield around 30% and 75% inhibition for each concentration of pNPP. This ensures sufficient signal to obtain accurate data while allowing a significant inhibition effect. Velocity (V) was plotted as a function of pNPP concentration and fit in a Lineweaver–Burk plot (double-reciprocal) using GraphPad Prism 8.41. All assays were done in 96-well microplates and performed in triplicate in at least two independent experiments.

Mtb H37Rv strain = experiment: Mycobacterium tuberculosis infection assay in THP-1 macrophages; format: cell-based; details: resting THP-1 macrophages; 1 µM and 40 µM; 24 h and 72 h post infection
[3] = tested on: Francisella tularensis live vaccine strain (LVS); format: cell-based; details: MH-S macrophages; 40 μM; 24 h post infection
F. tularensis = format: cell-based, Francisella tularensis; details: 40 µM; 24 h
AcpA = AcpA (Francisella tularensis subsp. novicida, UniProt A0Q436); experiment: biochemical; details: 1 mM; read-out: inhibition of enzymatic activity of AcpA
SapM [4] = molecular target: T1, SapM; experiment: Microscale thermophoresis of SapM binding
Procedure: Microscale thermophoresis (MST) was used to study the direct binding interaction of SapM with three compounds 1, 2 and 13. SapM was labelled with NTA-647nm dye which attaches to the 6-histidine tag. 100 nM NTA-647 was incubated with 200 nM SapM for 1-hour at 4 °C and then centrifuged at 20,000 rcf for 20 minutes at 4 °C in 20 mM HEPES, 200 mM NaCl pH 7.0. 10 mM compound was diluted to 500 μM in the same buffer. Binding checks were carried out with labelled SapM (5 nM) with and without 250 nM compound with LED power of 20% and a medium MST power in a Monolith Pico instrument and using standard capillaries. Binding analysis was performed with a doubling serial dilution from 250 nM with 16 dilutions and a constant concentration of 5 nM labelled SapM.

M. bovis BCG wild-type = format: cell-based; details: Raw 264.7 macrophages; 40 µM; 72 h post-infection; vs DMSO
M. bovis BCG ΔsapM = format: cell-based; details: 40 µM
[5] = Compound precipitation in enzyme assays; format: physicochemical; details: AcpA Malachite Green assay
[6] = MTT cytotoxicity assay, MH-S; details: mouse, MH-S cells (SV40-transformed alveolar macrophage cell line)

Chain of MptpA (P9WIA1 whole entry): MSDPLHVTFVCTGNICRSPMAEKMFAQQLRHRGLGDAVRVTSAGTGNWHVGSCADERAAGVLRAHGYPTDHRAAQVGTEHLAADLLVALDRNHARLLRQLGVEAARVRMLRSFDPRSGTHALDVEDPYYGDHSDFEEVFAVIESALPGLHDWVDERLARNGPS
Chain of AcpA (A0Q436 21-514 limits assumed): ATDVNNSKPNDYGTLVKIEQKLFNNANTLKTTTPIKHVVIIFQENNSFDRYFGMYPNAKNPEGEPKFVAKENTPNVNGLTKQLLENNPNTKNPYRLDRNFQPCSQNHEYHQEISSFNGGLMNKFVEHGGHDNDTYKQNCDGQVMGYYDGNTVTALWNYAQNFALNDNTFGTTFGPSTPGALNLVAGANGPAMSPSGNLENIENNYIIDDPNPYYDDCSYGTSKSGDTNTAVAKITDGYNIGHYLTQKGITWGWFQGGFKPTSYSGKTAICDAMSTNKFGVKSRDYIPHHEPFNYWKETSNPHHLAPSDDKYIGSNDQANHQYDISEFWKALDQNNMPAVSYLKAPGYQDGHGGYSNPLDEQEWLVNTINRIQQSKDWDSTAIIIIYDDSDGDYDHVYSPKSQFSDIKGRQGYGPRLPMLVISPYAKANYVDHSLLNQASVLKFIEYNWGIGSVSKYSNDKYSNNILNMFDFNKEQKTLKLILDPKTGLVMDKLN
Chain of MptpB (I6WXK4 whole entry, looked up): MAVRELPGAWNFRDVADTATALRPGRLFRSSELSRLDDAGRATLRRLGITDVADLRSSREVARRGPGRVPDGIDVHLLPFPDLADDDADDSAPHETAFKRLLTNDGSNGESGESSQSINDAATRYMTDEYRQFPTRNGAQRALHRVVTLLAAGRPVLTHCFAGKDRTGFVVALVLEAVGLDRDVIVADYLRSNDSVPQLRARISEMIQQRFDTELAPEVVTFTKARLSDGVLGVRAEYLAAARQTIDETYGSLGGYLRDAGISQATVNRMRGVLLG

For N#CC(C#N)=C(N)/C(C#N)=C/c1cc(O)c(O)c(O)c1 [Compound 1, Tyrphostin 51], the remaining activity at 100 µM (SapM [1]; 0.5 h, compounds at 100 µM, relative to pNPP DMSO control, read-out: %SA (percentage specific activity of SapM)) was 0%, the “effect on SapM enzyme activity” value (SapM [1]; compounds at 100 µM) was “completely abolished the enzymatic activity; also recorded: abolished enzyme activity completely” and the IC50 (SapM [1]; pNPP assay, dose-response) was 6.3 ± 1 µM. The IC50 (MptpA) was 19.8 ± 1 µM, the IC50 (MptpB) was over 100 µM and the “mechanism of inhibition of SapM” value (SapM [2]) was “uncompetitive inhibitors”. The “Mtb intracellular burden vs DMSO control” value (Mtb H37Rv strain) was “significant (****p < 0.0001) reduction”, the “reduction of F. tularensis intracellular burden” value [3] was 55% and the “acellular growth of F. tularensis” value (F. tularensis) was “does not affect acellular growth”. The inhibition at 1000 µM (AcpA) was about 30%, the “binding to SapM by MST” value (SapM [4]) was “confirmed” and the EC50 (SapM [4]; Bivalent fit EC50 (1), MST titration, tighter binding mode) was 0.52 µM. For the same molecule, the “intracellular burden of wild-type M. bovis BCG” value (M. bovis BCG wild-type) was “reduced the intracellular burden”, the “intracellular burden of ΔsapM” value (M. bovis BCG ΔsapM) was “did not further reduce the intracellular burden” and the “concentration at which compound precipitates” value [5] was at least 2000 µM. The viability at 24 h [6] was over 70%.
